From patent publication US20200354426A1 (MEDIMMUNE LIMITED, priority 2016, published 2020)
Values joined by “and” are separate entries in the source; they are usually repeats but may differ in a detail not shown here. Identical values can stand only once. Numbered stars: 1 amine (or outer) side, 2 acyl side, 3 side chain; on linkers, the order of the positions; unused ones are H or OH. Side chains are listed from the residue outwards. Ends that are not written are not given here. Peptide text beside a SMILES is read from it. * marks the point of attachment. γGlu = O=C(O)[C@H](CCC(=O)[*:2])N[*:1]; Palmitoyl = CCCCCCCCCCCCCCCC(=O)*; Ahx = NCCCCCC(=O)O

Assays:
Human GlucR = biological target: T1, Human GlucR (Homo sapiens, UniProt P47871); assay: cAMP activity assay in assay medium (assay 1); format: cell-based; details: assay medium; Table 4; read-out: hGlucR EC50
T1 construct: expressed in transfected cells
Text: (§1) Biological Activity of Peptides in Cell-Based cAMP Activity Assay (Assay 1):
(§2) All sample dilutions were made in duplicate.

Human GLP1R = Human GLP1R (Homo sapiens, UniProt P43220); assay: cAMP activity assay in assay medium (assay 1); format: cell-based; design: expressed in transfected cells; details: assay medium; Table 4; read-out: hGLP1R EC50
Text: as §1, §2

T1 sequence (P47871 26-477): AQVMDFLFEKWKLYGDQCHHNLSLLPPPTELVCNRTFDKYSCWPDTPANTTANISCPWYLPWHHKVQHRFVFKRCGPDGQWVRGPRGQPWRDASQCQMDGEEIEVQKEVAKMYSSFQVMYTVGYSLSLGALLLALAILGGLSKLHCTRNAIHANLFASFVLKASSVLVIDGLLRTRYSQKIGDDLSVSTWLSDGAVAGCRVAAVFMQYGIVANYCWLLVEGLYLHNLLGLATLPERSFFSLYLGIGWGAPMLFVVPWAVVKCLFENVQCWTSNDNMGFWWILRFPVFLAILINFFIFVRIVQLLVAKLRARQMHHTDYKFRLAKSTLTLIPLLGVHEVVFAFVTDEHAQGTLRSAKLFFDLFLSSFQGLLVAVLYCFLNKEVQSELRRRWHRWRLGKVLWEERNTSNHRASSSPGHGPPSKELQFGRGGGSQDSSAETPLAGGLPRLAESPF
Human GLP1R, sequence (P43220 24-463): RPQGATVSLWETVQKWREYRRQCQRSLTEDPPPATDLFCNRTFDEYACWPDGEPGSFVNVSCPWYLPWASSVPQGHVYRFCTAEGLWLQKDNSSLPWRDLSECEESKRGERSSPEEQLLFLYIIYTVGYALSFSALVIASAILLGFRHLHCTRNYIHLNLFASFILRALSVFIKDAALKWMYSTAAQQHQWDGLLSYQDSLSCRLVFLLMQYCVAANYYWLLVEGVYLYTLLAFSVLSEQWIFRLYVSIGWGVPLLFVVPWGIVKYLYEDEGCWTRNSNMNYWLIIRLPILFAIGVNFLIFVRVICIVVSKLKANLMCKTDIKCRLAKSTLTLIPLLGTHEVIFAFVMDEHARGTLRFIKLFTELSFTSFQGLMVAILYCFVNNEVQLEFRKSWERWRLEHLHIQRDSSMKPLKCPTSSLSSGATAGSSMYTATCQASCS

Row | Compound | EC50 (Human GlucR) | EC50 (Human GLP1R) [nM]
1 | CCCCCCCCCCCCCCCC(=O)N[C@@H](CCC(=O)NCCCC[C@H](NC(=O)[C@H](CO)NC(=O)[C@H](Cc1ccc(O)cc1)NC(=O)[C@H](CC(=O)O)NC(=O)[C@H](CO)NC(=O)[C@@H](NC(=O)[C@H](Cc1ccccc1)NC(=O)[C@@H](NC(=O)CNC(=O)[C@H](CCC(N)=O)NC(=O)[C@H](CO)NC(=O)[C@@H](N)Cc1c[nH]cn1)[C@@H](C)O)[C@@H](C)O)C(=O)N[C@@H](Cc1ccc(O)cc1)C(=O)N[C@@H](CC(C)C)C(=O)N[C@@H](CC(=O)O)C(=O)N[C@@H](CO)C(=O)N[C@@H](CCC(=O)O)C(=O)N[C@@H](CCCNC(=N)N)C(=O)N[C@@H](C)C(=O)N[C@@H](CCC(N)=O)C(=O)N[C@@H](CC(=O)O)C(=O)N[C@@H](Cc1ccccc1)C(=O)N[C@H](C(=O)N[C@@H](CCC(N)=O)C(=O)N[C@@H](Cc1c[nH]c2ccccc12)C(=O)N[C@@H](CC(C)C)C(=O)N[C@H](C(=O)N[C@@H](C)C(=O)NCC(=O)NCC(N)=O)C(C)C)C(C)C)C(=O)O [g702] (H-HSQGTFTSDYSK([γGlu-Palmitoyl])YLDSERAQDFVQWLVAGG-NH2; N-terminus assumed) | 1.49 nM | 3.35
2 | CCCCCCCCCCCCCCCC(=O)N[C@@H](CCC(=O)NCCCC[C@H](NC(=O)[C@H](CO)NC(=O)[C@H](CC(=O)O)NC(=O)[C@H](CC(C)C)NC(=O)[C@H](Cc1ccc(O)cc1)NC(=O)[C@H](CCCNC(=N)N)NC(=O)[C@H](CO)NC(=O)[C@H](Cc1ccc(O)cc1)NC(=O)[C@H](CC(=O)O)NC(=O)[C@H](CO)NC(=O)[C@@H](NC(=O)[C@H](Cc1ccccc1)NC(=O)[C@@H](NC(=O)CNC(=O)[C@H](CCC(N)=O)NC(=O)CNC(=O)[C@@H](N)Cc1c[nH]cn1)[C@@H](C)O)[C@@H](C)O)C(=O)N[C@@H](CCCNC(=N)N)C(=O)N[C@@H](C)C(=O)N[C@@H](CCCNC(=N)N)C(=O)N[C@@H](CC(=O)O)C(=O)N[C@@H](Cc1ccccc1)C(=O)N[C@H](C(=O)N[C@@H](CCC(=O)O)C(=O)N[C@@H](Cc1c[nH]c2ccccc12)C(=O)N[C@@H](CC(C)C)C(=O)N[C@H](C(=O)N[C@@H](C)C(=O)NCC(=O)NCC(N)=O)C(C)C)C(C)C)C(=O)O [g720] (H-HGQGTFTSDYSRYLDSK([γGlu-Palmitoyl])RARDFVEWLVAGG-NH2; N-terminus assumed) | 0.352 nM | 0.0534
3 | CCCCCCCCCCCCCCCC(=O)N[C@@H](CCC(=O)NCCCC[C@H](NC(=O)[C@H](CO)NC(=O)[C@H](CC(=O)O)NC(=O)[C@H](CC(C)C)NC(=O)[C@H](Cc1ccc(O)cc1)NC(=O)[C@H](CCCCN)NC(=O)[C@H](CO)NC(=O)[C@H](Cc1ccc(O)cc1)NC(=O)[C@H](CC(=O)O)NC(=O)[C@H](CO)NC(=O)[C@@H](NC(=O)[C@H](Cc1ccccc1)NC(=O)[C@@H](NC(=O)CNC(=O)[C@H](CCC(N)=O)NC(=O)CNC(=O)[C@@H](N)Cc1c[nH]cn1)[C@@H](C)O)[C@@H](C)O)C(=O)N[C@@H](CCCNC(=N)N)C(=O)N[C@@H](C)C(=O)N[C@@H](C)C(=O)N[C@@H](CC(=O)O)C(=O)N[C@@H](Cc1ccccc1)C(=O)N[C@H](C(=O)N[C@@H](C)C(=O)N[C@@H](Cc1c[nH]c2ccccc12)C(=O)N[C@@H](CC(C)C)C(=O)N[C@H](C(=O)N[C@@H](C)C(=O)NCC(=O)NCC(N)=O)C(C)C)C(C)C)C(=O)O [g736] (H-HGQGTFTSDYSKYLDSK([γGlu-Palmitoyl])RAADFVAWLVAGG-NH2; N-terminus assumed) | 0.919 nM and 0.92 nM | 0.0854
4 | CCCCCCCCCCCCCCCC(=O)N[C@@H](CCC(=O)NCCCC[C@H](NC(=O)[C@H](CO)NC(=O)[C@H](CC(=O)O)NC(=O)[C@H](CC(C)C)NC(=O)[C@H](Cc1ccc(O)cc1)NC(=O)[C@H](CCCCN)NC(=O)[C@H](CO)NC(=O)[C@H](Cc1ccc(O)cc1)NC(=O)[C@H](CC(=O)O)NC(=O)[C@H](CO)NC(=O)[C@@H](NC(=O)[C@H](Cc1ccccc1)NC(=O)[C@@H](NC(=O)CNC(=O)[C@H](CCC(=O)O)NC(=O)CNC(=O)[C@@H](N)Cc1c[nH]cn1)[C@@H](C)O)[C@@H](C)O)C(=O)N[C@@H](CCCNC(=N)N)C(=O)N[C@@H](C)C(=O)N[C@@H](C)C(=O)N[C@@H](CC(=O)O)C(=O)N[C@@H](Cc1ccccc1)C(=O)N[C@H](C(=O)N[C@@H](C)C(=O)N[C@@H](Cc1c[nH]c2ccccc12)C(=O)N[C@@H](CC(C)C)C(=O)N[C@H](C(=O)N[C@@H](C)C(=O)NCC(=O)NCC(N)=O)C(C)C)C(C)C)C(=O)O [g737] (H-HGEGTFTSDYSKYLDSK([γGlu-Palmitoyl])RAADFVAWLVAGG-NH2; N-terminus assumed) | 734 nM | 0.0814
5 | CCCCCCCCCCCCCCCC(=O)N[C@@H](CCC(=O)NCCCC[C@H](NC(=O)[C@H](C)NC(=O)[C@H](CCCNC(=N)N)NC(=O)[C@H](CCCNC(=N)N)NC(=O)[C@H](CO)NC(=O)[C@H](CC(=O)O)NC(=O)[C@H](CC(C)C)NC(=O)[C@H](Cc1ccc(O)cc1)NC(=O)[C@H](CCCCN)NC(=O)[C@H](CO)NC(=O)[C@H](Cc1ccc(O)cc1)NC(=O)[C@H](CC(=O)O)NC(=O)[C@H](CO)NC(=O)[C@@H](NC(=O)[C@H](Cc1ccccc1)NC(=O)[C@@H](NC(=O)CNC(=O)[C@H](CCC(N)=O)NC(=O)[C@H](CO)NC(=O)[C@@H](N)Cc1c[nH]cn1)[C@@H](C)O)[C@@H](C)O)C(=O)N[C@@H](CC(=O)O)C(=O)N[C@@H](Cc1ccccc1)C(=O)N[C@H](C(=O)N[C@@H](CCC(N)=O)C(=O)N[C@@H](Cc1c[nH]c2ccccc12)C(=O)N[C@@H](CC(C)C)C(=O)N[C@@H](CCC(=O)O)C(=O)N[C@@H](C)C(=O)NCC(=O)NCC(N)=O)C(C)C)C(=O)O [g744] | 0.0392 nM | 2.45
6 | CCCCCCCCCCCCCCCC(=O)N[C@@H](CCC(=O)NCCCC[C@H](NC(=O)[C@@H](NC(=O)[C@H](Cc1ccccc1)NC(=O)[C@H](CC(=O)O)NC(=O)[C@H](CCC(N)=O)NC(=O)[C@H](C)NC(=O)[C@H](CCCNC(=N)N)NC(=O)[C@H](CCCNC(=N)N)NC(=O)[C@H](CO)NC(=O)[C@H](CC(=O)O)NC(=O)[C@H](CC(C)C)NC(=O)[C@H](Cc1ccc(O)cc1)NC(=O)[C@H](CCCCN)NC(=O)[C@H](CO)NC(=O)[C@H](Cc1ccc(O)cc1)NC(=O)[C@H](CC(=O)O)NC(=O)[C@H](CO)NC(=O)[C@@H](NC(=O)[C@H](Cc1ccccc1)NC(=O)[C@@H](NC(=O)CNC(=O)[C@H](CCC(N)=O)NC(=O)[C@H](CO)NC(=O)[C@@H](N)Cc1c[nH]cn1)[C@@H](C)O)[C@@H](C)O)C(C)C)C(=O)N[C@@H](Cc1c[nH]c2ccccc12)C(=O)N[C@@H](CC(C)C)C(=O)N[C@@H](CCC(=O)O)C(=O)N[C@@H](C)C(=O)NCC(=O)NCC(N)=O)C(=O)O [g746] | 0.0354 nM | 11.5
7 | CCCCCCCCCCCCCCCC(=O)NCCCCCC(=O)NCCCC[C@H](NC(=O)[C@H](C)NC(=O)[C@H](CCCNC(=N)N)NC(=O)[C@H](CCC(=O)O)NC(=O)[C@H](CO)NC(=O)[C@H](CC(=O)O)NC(=O)[C@H](CC(C)C)NC(=O)[C@H](Cc1ccc(O)cc1)NC(=O)[C@H](CCCCN)NC(=O)[C@H](CO)NC(=O)[C@H](Cc1ccc(O)cc1)NC(=O)[C@H](CC(=O)O)NC(=O)[C@H](CO)NC(=O)[C@@H](NC(=O)[C@H](Cc1ccccc1)NC(=O)[C@@H](NC(=O)CNC(=O)[C@H](CCC(N)=O)NC(=O)[C@H](CO)NC(=O)[C@@H](N)Cc1c[nH]cn1)[C@@H](C)O)[C@@H](C)O)C(=O)N[C@@H](CC(=O)O)C(=O)N[C@@H](Cc1ccccc1)C(=O)N[C@H](C(=O)N[C@@H](C)C(=O)N[C@@H](Cc1c[nH]c2ccccc12)C(=O)N[C@@H](CC(C)C)C(=O)N[C@@H](CCC(=O)O)C(=O)N[C@@H](CCCNC(=N)N)C(=O)NCC(=O)NCC(N)=O)C(C)C [g787] (H-HSQGTFTSDYSKYLDSERAK([Ahx-Palmitoyl])DFVAWLERGG-NH2; N-terminus assumed) | 0.0436 nM | 6.65
8 | CCCCCCCCCCCCCCCC(=O)N[C@@H](CCC(=O)NCCCC[C@H](NC(=O)[C@H](Cc1ccc(O)cc1)NC(=O)[C@H](CCCNC(=N)N)NC(=O)[C@H](CO)NC(=O)[C@H](Cc1ccc(O)cc1)NC(=O)[C@H](CC(=O)O)NC(=O)[C@H](CO)NC(=O)[C@@H](NC(=O)[C@H](Cc1ccccc1)NC(=O)[C@@H](NC(=O)CNC(=O)[C@H](CCC(N)=O)NC(=O)[C@H](CO)NC(=O)[C@@H](N)Cc1c[nH]cn1)[C@@H](C)O)[C@@H](C)O)C(=O)N[C@@H](CC(=O)O)C(=O)N[C@@H](CO)C(=O)N[C@@H](CCC(=O)O)C(=O)N[C@@H](CCCNC(=N)N)C(=O)N[C@@H](C)C(=O)N[C@@H](CCCNC(=N)N)C(=O)N[C@@H](CC(=O)O)C(=O)N[C@@H](Cc1ccccc1)C(=O)N[C@H](C(=O)N[C@@H](C)C(=O)N[C@@H](Cc1c[nH]c2ccccc12)C(=O)N[C@@H](CC(C)C)C(=O)N[C@H](C(=O)N[C@@H](C)C(=O)NCC(=O)NCC(N)=O)C(C)C)C(C)C)C(=O)O [g821] | 0.00463 nM | 0.0558
9 | HSQGTFTSDYSKYLDSRRAQDFVQWLVRGGPSSGAPPPSK-NH2 [g319] | 0.0104 nM | 0.0361
